Results from PMC12751025, “α‑Aminoboronic Acid Moieties in Boro Dipeptides Modulate Proteasome Subunit Selectivity and Provide Access to Compounds with Potent Anticancer and Anti-Inflammatory Activity” (Journal of Medicinal Chemistry, 2025).

Tests used:
β1c subunit of human cCP = target: T1, β1c subunit of human cCP (Homo sapiens, UniProt P28072+Q99436); assay: IC50 determination with subunit-specific fluorogenic substrate Ac-nLPnLD-AMC; format: biochemical; settings: own assay
T1 construct: purchased Boston Biochem, Inc
Procedure: (§1) The measurements of the residual activity of control compounds were carried out at final compound concentrations of 1 μM in the assay buffer (50 mM Tris-HCl, 0.5 mM ethylenediaminetetraacetic acid (EDTA), pH 7.4). Stock solutions of the compounds were prepared in DMSO. To the 35 μL of solution of the compound in the buffer, 35 μL of 0.4 nM human iCP (South Bay Bio, San Jose, CA, USA) or human cCP (Boston Biochem, Inc., Cambridge, MA, USA) was added. For assays evaluating the activity of β2c and β2i, the buffer was modified by adding the proteasomal activator PA28β (Boston Biochem, Inc., Cambridge, MA, USA) at a final concentration of 6 nM. […] The substrates used were acetyl-Nle-Pro-Nle-Asp-7-amino-4-methylcoumarin (Ac-nLPnLD-AMC, Bachem, Bubendorf, Switzerland) for β1c, acetyl-Pro-Ala-Leu-7-amino-4-methylcoumarin (Ac-PAL-AMC, Boston Biochem, Inc., Cambridge, MA, USA) for β1i, acetyl-Arg-Leu-Arg-7-amino-4-methylcoumarin (Ac-RLR-AMC, Bachem, Bubendorf, Switzerland) for β2c and β2i, acetyl-Trp-Leu-Ala-7-amino-4-methylcoumarin (Ac-WLA-AMC, Bachem, Bubendorf, Switzerland) for β5c, and acetyl-Ala-Asn-Trp-7-amino-4-methylcoumarin (Ac-ANW-AMC, Bachem, Bubendorf, Switzerland) for β5i. Progress of the reaction was measured using a BioTek Synergy HT microplate reader, monitoring fluorescence at 460 nm (excitation at 360 nm) for 60 min at 37 °C. The initial linear ranges were used to calculate the reaction velocity and determine the residual activity.
(§2) The final assay mixtures contained 0.4 nM human iCP or cCP in assay buffer (50 mM Tris-HCl, 0.5 mM EDTA, pH 7.4, addition of PA28β for β2c and β2i subunits). […] After incubation at 37 °C for 30 min, the reaction was initiated by the addition of the substrate Ac-nLPnLD-AMC for β1c, Ac-PAL-AMC for β1i, Ac-RLR-AMC for β2c and β2i, Ac-WLA-AMC for β5c, and Ac-ANW-AMC for β5i. Fluorescence was monitored at 460 nm (excitation at 360 nm) for 60 min at 37 °C. The reaction progress was recorded and the initial linear phases were used to determine the velocity. The IC50 values were calculated using GraphPad Prism software (GraphPad Software, San Diego, CA, USA), and the results represent the mean values of at least three independent determinations.

Cytotoxicity MTS assay = format: cell-based; settings: human, MM.1S multiple myeloma cells, 250 nM, 72 h (Figure S3), read-out: viable cells
Procedure: Cytotoxicity was determined using the MTS cell proliferation assay (CellTiter 96 AQueous One Solution Cell Proliferation Assay, Promega, Wisconsin, USA), which measures mitochondrial metabolic activity as a surrogate for cell viability. The assay was performed according to the manufacturer protocol. […] The cells were seeded in 96-well plates (15.000–30.000 cells/well). After 24 h incubation at 5% CO2 and 37 °C, the cells were treated either with DMSO (negative control) or solutions of the tested compounds in DMSO. After 24 or 72 h, MTS reagent was added. Cells were incubated for additional 2 h - 4 h, followed by the measurement of absorbance at 490 nm on the Tecan Spark microplate reader.

β5c = settings: in parentheses in Table S2; SI reference list; read-out: IC50 β5c, previously published data; cited from earlier work
β2c = settings: in parentheses in Table S2; SI reference list; read-out: IC50 β2c, previously published data; cited from earlier work
β1i subunit of human iCP = β1i subunit of human iCP (Homo sapiens, UniProt P28065+P40306); assay: IC50 determination with subunit-specific fluorogenic substrate Ac-PAL-AMC; settings: IC50 β1i, own assay
Procedure: as §1, §2

MM.1S = system: MM.1S; set-up: method as in previous findings; settings: reference number not given; ref previous findings; read-out: IC50 for the reduction of MM.1S viability; cited from earlier work
β2c subunit of human cCP = target: T2, β2c subunit of human cCP (Homo sapiens, UniProt P49720+Q99436); assay: IC50 determination with fluorogenic substrate Ac-RLR-AMC (PA28β added); format: biochemical; settings: own assay
T2 construct: purchased Boston Biochem, Inc
Procedure: Stock solutions of the compounds were prepared in DMSO. To the 35 μL of solution of the compound in the buffer, 35 μL of 0.4 nM human iCP (South Bay Bio, San Jose, CA, USA) or human cCP (Boston Biochem, Inc., Cambridge, MA, USA) was added. For assays evaluating the activity of β2c and β2i, the buffer was modified by adding the proteasomal activator PA28β (Boston Biochem, Inc., Cambridge, MA, USA) at a final concentration of 6 nM. […] The substrates used were acetyl-Nle-Pro-Nle-Asp-7-amino-4-methylcoumarin (Ac-nLPnLD-AMC, Bachem, Bubendorf, Switzerland) for β1c, acetyl-Pro-Ala-Leu-7-amino-4-methylcoumarin (Ac-PAL-AMC, Boston Biochem, Inc., Cambridge, MA, USA) for β1i, acetyl-Arg-Leu-Arg-7-amino-4-methylcoumarin (Ac-RLR-AMC, Bachem, Bubendorf, Switzerland) for β2c and β2i, acetyl-Trp-Leu-Ala-7-amino-4-methylcoumarin (Ac-WLA-AMC, Bachem, Bubendorf, Switzerland) for β5c, and acetyl-Ala-Asn-Trp-7-amino-4-methylcoumarin (Ac-ANW-AMC, Bachem, Bubendorf, Switzerland) for β5i. Progress of the reaction was measured using a BioTek Synergy HT microplate reader, monitoring fluorescence at 460 nm (excitation at 360 nm) for 60 min at 37 °C. The initial linear ranges were used to calculate the reaction velocity and determine the residual activity.
as §2

β1i = settings: in parentheses in Table S2; SI reference list; read-out: IC50 β1i, previously published data; cited from earlier work
β2i subunit of human iCP = β2i subunit of human iCP (Homo sapiens, UniProt P40306+P49720); assay: IC50 determination with fluorogenic substrate Ac-RLR-AMC (PA28β added)
Procedure: as §1, §2

β5i = settings: in parentheses in Table S2; SI reference list; read-out: IC50 β5i, previously published data; cited from earlier work
β5c subunit of human cCP = target: T3, β5c subunit of human cCP (Homo sapiens, UniProt P20618+P28074); assay: IC50 determination with fluorogenic substrate Ac-WLA-AMC; format: biochemical; settings: own assay
T3 construct: purchased Boston Biochem, Inc
Procedure: as §1, §2

β5i subunit of human iCP = β5i subunit of human iCP (Homo sapiens, UniProt P20618+P28062); assay: IC50 determination with fluorogenic substrate Ac-ANW-AMC; settings: IC50 β5i, own assay
Procedure: as §1, §2

β2i = settings: in parentheses in Table S2; SI reference list; read-out: IC50 β2i, previously published data; cited from earlier work
β1c = settings: in parentheses in Table S2; SI reference list; read-out: IC50 β1c, previously published data; cited from earlier work

IC50 (β1c subunit of human cCP): > 1000 nM
IC50 (β1i subunit of human iCP): > 1000 nM
IC50 (β2c subunit of human cCP): > 1000 nM
IC50 (β2i subunit of human iCP): > 1000 nM
IC50 (β5c subunit of human cCP): 1230 ± 90 nM
IC50 (β5i subunit of human iCP): 7.4 ± 1 nM
SMILES: O=C(N[C@@H](Cc1coc2ccccc12)B(O)O)[C@@H]1C[C@H]2CC[C@@H]1O2 [M3258]
viability at 72 h, […] (Cytotoxicity MTS assay): 87%
IC50 (β5c): 2520 nM
IC50 (β2c): > 30000 nM
IC50 (MM.1S): 367 nM
IC50 (β1i): > 30000 nM
IC50 (β5i): 4.1 nM
IC50 (β2i): > 30000 nM
IC50 (β1c): > 30000 nM
